{"source": "ChEMBL document CHEMBL1156392", "about": "“New sesquiterpene derivatives from the red alga Laurencia scoparia. Isolation, structure determination, and anthelmintic activity” (J Nat Prod, 2001)"}
{"tested_on": "Nippostrongylus brasiliensis", "experiment": "(§1) Anthelmintic activity against Nippostrongylus brasiliensis", "type": "functional, organism-based", "settings": "not given", "units": {"Activity": "µM"}}
{"molecule": "C=C1C[C@@H](O)[C@@H](Br)C(C)(C)[C@@]12C=C/C(=C/Br)CC2", "Activity": "<100"}
{"molecule": "C=C1C[C@@H](O)[C@@H](Br)C(C)(C)[C@@]12C=CC(=O)CC2", "Activity": "<100"}
{"molecule": "C=C1C[C@@H](O)[C@@H](Br)C(C)(C)[C@@]12C=C/C(=C\\Br)CC2", "Activity": "<100"}
{"molecule": "CCCCCCCCCCCCCC/C=C(/C=O)CCCCCCCCCCCCC", "Activity": "<100"}
{"molecule": "C=C1C[C@@H](O)[C@H](Br)C(C)(C)[C@]12CC=C(C)CC2", "Activity": "<100"}
{"molecule": "CC1=CC(=O)CC(C)(C)[C@@]12C=CC(=O)CC2", "Activity": "<100"}
{"molecule": "C=C1CC[C@@H](Br)C(C)(C)[C@]12CC[C@](C)(Br)[C@@H](Cl)C2", "Activity": "<100"}
{"molecule": "C=C1C[C@H](O)[C@@H](Br)C(C)(C)[C@@]12C=C[C@](C)(O)CC2", "note": "[ISORIGIDOL]", "Activity": "<100"}
{"tested_on": "Nippostrongylus brasiliensis", "experiment": "as §1", "type": "functional, organism-based", "settings": "Nippostrongylus brasiliensis", "units": {"EC50": "nM"}}
{"molecule": "CCCSc1ccc2[nH]c(NC(=O)OC)nc2c1", "note": "[ALBENDAZOLE]", "EC50": 340}
{"molecule": "COC(=O)Nc1nc2cc(Sc3ccccc3)ccc2[nH]1", "note": "[FENBENDAZOLE]", "EC50": 120}
{"molecule": "c1ccc([C@H]2CN3CCSC3=N2)cc1", "note": "[LEVAMISOLE]", "EC50": 210}
